How the values were obtained:
Assay in all cases: radiometric filter-binding kinase assay
CAMKK2 (human) = CAMKK2 (human) (UniProt Q96RR4)
HIPK1 (human) = HIPK1 (human) (UniProt Q86Z02)
GSK3B (human) = GSK3B (human) (UniProt P49841)
BRSK2 (human) = BRSK2 (human) (UniProt Q8IWQ3)
SRC (human) = SRC (human) (UniProt P12931)
INSR (human) = INSR (human) (UniProt P06213)
PRKCZ (human) = PRKCZ (human) (UniProt Q05513)
PRKAA1 or PRKAA2 (rat) = details: accession and sequence are those of the human protein
EPHB4 (human) = EPHB4 (human) (UniProt P54760)
MARK4 (human) = MARK4 (human) (UniProt Q96L34)
MAP3K1 (human) = MAP3K1 (human) (UniProt Q13233)
IGF1R (human) = IGF1R (human) (UniProt P08069)
ROCK2 (rat) = details: accession and sequence are those of the human protein
MAP3K7 TAB1 (human) = MAP3K7 TAB1 (human) (UniProt Q15750+O43318)
YES1 (human) = YES1 (human) (UniProt P07947)
EPHB3 (human) = EPHB3 (human) (UniProt P54753)
HIPK2 (human) = HIPK2 (human) (UniProt Q9H2X6)
LCK (mouse) = details: accession and sequence are those of the human protein
CSK (human) = CSK (human) (UniProt P41240)
EPHB1 (human) = EPHB1 (human) (UniProt P54762)
PAK6 (human) = PAK6 (human) (UniProt Q9NQU5)
SYK (human) = SYK (human) (UniProt P43405)
RPS6KA5 KD1 KD2 (human) = RPS6KA5 KD1 KD2 (human) (UniProt O75582)
MAPK13 (human) = MAPK13 (human) (UniProt O15264)
PAK7 (human) = PAK7 (human) (UniProt Q9P286)
[1] = tested on: AKT2 (human), P31751 [S474D]
HIPK3 (human) = HIPK3 (human) (UniProt Q9H422)
DAPK1 (human) = DAPK1 (human) (UniProt P53355)
CLK2 (human) = CLK2 (human) (UniProt P49760)
PKN2 (human) = PKN2 (human) (UniProt Q16513)
MAP3K5 (human) = MAP3K5 (human) (UniProt Q99683)
EPHA4 (human) = EPHA4 (human) (UniProt P54764)
MAP3K9 (human) = MAP3K9 (human) (UniProt P80192)
PLK1 (human) = PLK1 (human) (UniProt P53350)
MAPK1 (human) = MAPK1 (human) (UniProt P28482)
MAPK11 (human) = MAPK11 (human) (UniProt Q15759)
MAPK11 (human), sequence (Q15759 whole entry, looked up): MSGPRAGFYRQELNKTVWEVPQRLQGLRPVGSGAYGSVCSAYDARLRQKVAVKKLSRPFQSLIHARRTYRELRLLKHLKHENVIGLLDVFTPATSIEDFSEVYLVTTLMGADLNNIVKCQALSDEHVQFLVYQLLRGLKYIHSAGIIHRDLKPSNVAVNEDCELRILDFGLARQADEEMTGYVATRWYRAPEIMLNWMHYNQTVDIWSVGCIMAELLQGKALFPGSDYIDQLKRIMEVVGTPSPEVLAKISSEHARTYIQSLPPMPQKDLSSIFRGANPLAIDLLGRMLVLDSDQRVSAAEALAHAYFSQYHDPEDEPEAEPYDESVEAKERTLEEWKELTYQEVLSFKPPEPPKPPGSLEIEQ

MAPK13 (human), sequence (O15264 whole entry, looked up): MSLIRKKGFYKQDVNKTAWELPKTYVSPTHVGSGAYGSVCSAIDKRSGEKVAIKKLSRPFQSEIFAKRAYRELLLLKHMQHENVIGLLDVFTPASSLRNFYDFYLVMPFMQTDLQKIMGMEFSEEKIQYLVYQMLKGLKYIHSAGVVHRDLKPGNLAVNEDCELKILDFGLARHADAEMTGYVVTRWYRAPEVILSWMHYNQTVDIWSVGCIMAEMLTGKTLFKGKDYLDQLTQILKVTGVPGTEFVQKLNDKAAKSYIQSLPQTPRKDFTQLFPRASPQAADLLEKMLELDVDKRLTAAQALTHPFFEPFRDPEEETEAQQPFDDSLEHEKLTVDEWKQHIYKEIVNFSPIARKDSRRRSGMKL
EPHB1 (human), sequence (P54762 whole entry, looked up): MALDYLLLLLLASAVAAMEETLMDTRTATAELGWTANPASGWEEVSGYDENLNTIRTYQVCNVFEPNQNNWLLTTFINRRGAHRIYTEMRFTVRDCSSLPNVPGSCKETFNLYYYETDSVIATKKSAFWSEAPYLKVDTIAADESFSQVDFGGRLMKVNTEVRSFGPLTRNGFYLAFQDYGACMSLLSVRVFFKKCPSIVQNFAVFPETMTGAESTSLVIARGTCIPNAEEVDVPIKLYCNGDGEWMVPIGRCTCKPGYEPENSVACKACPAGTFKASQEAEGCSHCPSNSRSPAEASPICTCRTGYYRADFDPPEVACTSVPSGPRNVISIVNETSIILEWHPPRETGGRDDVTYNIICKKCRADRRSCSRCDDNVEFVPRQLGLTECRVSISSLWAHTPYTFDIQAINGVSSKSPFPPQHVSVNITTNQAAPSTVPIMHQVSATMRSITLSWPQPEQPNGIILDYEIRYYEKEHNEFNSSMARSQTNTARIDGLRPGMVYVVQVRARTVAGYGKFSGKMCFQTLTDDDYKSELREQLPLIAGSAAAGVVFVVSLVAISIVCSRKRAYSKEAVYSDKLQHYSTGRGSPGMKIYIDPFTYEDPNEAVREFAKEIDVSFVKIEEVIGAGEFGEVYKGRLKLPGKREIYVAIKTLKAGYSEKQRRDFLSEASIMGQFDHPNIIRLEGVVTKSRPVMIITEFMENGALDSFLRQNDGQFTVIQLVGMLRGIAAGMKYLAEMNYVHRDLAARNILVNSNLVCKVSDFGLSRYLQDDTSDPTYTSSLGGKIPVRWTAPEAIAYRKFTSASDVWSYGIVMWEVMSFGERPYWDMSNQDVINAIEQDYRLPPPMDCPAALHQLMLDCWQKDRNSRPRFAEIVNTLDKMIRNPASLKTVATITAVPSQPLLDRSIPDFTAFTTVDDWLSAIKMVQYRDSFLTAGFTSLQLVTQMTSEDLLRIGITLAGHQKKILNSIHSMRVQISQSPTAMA
AKT2 (human), P31751 [S474D], sequence (P31751 whole entry S474D, looked up): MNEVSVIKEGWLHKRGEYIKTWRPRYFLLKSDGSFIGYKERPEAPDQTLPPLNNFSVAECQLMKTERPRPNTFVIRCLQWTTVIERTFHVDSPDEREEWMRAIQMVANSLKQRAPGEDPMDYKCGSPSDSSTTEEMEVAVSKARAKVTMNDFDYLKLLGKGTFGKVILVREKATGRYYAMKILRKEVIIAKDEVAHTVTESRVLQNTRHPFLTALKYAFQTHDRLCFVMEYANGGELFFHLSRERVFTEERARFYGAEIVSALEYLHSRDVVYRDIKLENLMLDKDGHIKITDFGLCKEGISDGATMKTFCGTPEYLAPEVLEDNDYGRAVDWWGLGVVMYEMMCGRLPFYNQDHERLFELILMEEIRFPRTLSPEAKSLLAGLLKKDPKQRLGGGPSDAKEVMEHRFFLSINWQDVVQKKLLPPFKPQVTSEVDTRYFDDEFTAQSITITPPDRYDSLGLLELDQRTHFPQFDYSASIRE
GSK3B (human), sequence (P49841 whole entry, looked up): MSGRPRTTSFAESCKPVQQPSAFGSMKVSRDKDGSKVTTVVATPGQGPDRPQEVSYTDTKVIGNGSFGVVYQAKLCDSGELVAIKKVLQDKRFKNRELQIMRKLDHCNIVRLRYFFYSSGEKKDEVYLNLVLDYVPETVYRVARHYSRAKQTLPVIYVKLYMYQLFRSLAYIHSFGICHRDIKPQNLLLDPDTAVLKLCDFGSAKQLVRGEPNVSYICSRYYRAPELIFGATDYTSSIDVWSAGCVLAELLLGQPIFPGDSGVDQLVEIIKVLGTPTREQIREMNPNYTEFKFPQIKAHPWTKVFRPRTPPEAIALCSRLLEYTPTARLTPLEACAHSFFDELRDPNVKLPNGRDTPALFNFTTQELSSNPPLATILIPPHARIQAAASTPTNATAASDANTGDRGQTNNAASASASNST
DAPK1 (human), sequence (P53355 whole entry, looked up): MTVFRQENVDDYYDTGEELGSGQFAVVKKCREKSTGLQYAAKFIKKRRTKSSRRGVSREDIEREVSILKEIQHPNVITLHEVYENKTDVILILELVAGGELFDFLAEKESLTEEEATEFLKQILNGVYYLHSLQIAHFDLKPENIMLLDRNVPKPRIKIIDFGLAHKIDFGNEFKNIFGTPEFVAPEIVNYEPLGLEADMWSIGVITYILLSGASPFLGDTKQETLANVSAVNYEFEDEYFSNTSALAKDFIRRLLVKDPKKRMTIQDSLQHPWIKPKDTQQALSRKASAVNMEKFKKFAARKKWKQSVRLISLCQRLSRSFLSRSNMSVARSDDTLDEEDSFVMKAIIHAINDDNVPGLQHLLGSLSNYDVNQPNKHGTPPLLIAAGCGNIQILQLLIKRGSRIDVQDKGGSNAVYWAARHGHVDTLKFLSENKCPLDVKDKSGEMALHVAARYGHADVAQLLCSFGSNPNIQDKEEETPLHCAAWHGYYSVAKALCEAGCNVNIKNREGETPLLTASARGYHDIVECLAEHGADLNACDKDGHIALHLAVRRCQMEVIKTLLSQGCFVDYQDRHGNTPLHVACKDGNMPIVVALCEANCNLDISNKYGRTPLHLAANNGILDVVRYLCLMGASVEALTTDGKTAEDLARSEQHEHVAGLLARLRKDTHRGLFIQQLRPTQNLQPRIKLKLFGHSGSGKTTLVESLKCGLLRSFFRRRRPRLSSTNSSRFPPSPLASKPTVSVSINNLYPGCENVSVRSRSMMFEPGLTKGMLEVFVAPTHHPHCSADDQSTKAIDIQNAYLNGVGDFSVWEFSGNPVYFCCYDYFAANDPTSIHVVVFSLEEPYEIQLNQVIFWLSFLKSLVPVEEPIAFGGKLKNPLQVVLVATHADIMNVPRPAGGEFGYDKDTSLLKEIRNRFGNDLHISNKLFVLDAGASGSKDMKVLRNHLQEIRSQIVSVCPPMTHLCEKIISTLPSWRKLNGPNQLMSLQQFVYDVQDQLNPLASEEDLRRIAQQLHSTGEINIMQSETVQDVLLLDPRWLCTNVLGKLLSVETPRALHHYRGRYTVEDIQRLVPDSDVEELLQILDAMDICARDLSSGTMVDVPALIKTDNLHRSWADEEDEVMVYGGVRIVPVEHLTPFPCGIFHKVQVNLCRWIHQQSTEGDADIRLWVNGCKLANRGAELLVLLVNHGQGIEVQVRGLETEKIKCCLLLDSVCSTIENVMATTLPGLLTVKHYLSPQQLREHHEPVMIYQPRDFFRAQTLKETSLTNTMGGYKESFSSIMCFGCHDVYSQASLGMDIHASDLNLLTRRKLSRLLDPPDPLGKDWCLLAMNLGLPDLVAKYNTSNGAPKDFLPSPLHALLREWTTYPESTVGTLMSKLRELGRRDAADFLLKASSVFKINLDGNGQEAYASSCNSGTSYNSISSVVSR
EPHB3 (human), sequence (P54753 whole entry, looked up): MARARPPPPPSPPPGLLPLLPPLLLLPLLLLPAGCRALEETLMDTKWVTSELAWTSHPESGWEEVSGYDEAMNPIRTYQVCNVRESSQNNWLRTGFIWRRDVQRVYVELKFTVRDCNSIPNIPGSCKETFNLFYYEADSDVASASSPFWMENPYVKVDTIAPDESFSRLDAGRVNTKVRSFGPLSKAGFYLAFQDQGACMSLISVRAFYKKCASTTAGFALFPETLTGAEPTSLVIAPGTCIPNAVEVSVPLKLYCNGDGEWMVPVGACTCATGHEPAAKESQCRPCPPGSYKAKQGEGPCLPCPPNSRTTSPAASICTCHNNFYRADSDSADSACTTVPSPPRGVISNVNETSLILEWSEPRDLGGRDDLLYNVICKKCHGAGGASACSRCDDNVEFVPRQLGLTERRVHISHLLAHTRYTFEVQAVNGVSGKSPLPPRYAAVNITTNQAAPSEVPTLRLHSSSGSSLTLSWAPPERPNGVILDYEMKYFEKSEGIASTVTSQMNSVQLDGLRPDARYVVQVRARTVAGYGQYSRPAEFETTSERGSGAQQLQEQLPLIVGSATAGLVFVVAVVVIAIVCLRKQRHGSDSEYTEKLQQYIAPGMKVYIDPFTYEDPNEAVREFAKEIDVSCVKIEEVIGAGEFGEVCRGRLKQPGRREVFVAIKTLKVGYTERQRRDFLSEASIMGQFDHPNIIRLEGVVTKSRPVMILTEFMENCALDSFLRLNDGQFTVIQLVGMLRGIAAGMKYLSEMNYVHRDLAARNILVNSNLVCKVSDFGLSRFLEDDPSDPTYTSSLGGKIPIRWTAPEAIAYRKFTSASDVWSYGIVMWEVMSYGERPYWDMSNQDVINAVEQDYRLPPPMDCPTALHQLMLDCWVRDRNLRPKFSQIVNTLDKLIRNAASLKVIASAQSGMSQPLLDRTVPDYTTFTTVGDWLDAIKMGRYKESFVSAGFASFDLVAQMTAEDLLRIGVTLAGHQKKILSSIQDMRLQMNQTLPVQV

residual activity (CAMKK2 (human); compound 0.1 µM): 85%
residual activity (CAMKK2 (human); compound 1.0 µM): 99%
residual activity (CAMKK2 (human); compound 10.0 µM): 62%
residual activity (HIPK1 (human); compound 0.1 µM): 99%
residual activity (HIPK1 (human); compound 1.0 µM): 99%
residual activity (HIPK1 (human); compound 10.0 µM): 106%
residual activity (GSK3B (human); compound 0.1 µM): 86%
residual activity (GSK3B (human); compound 1.0 µM): 82%
residual activity (GSK3B (human); compound 10.0 µM): 51%
residual activity (BRSK2 (human); compound 0.1 µM): 67%
residual activity (BRSK2 (human); compound 1.0 µM): 26%
residual activity (BRSK2 (human); compound 10.0 µM): 8%
residual activity (SRC (human); compound 0.1 µM): 106%
residual activity (SRC (human); compound 1.0 µM): 90%
residual activity (SRC (human); compound 10.0 µM): 66%
residual activity (INSR (human); compound 0.1 µM): 89%
residual activity (INSR (human); compound 1.0 µM): 86%
residual activity (INSR (human); compound 10.0 µM): 93%
residual activity (PRKCZ (human); compound 0.1 µM): 88%
residual activity (PRKCZ (human); compound 1.0 µM): 109%
residual activity (PRKCZ (human); compound 10.0 µM): 84%
residual activity (PRKAA1 or PRKAA2 (rat); compound 0.1 µM): 97%
residual activity (PRKAA1 or PRKAA2 (rat); compound 1.0 µM): 61%
residual activity (PRKAA1 or PRKAA2 (rat); compound 10.0 µM): 20%
residual activity (EPHB4 (human); compound 0.1 µM): 103%
residual activity (EPHB4 (human); compound 10.0 µM): 91%
residual activity (MARK4 (human); compound 0.1 µM): 87%
residual activity (MARK4 (human); compound 1.0 µM): 46%
residual activity (MARK4 (human); compound 10.0 µM): 10%
residual activity (MAP3K1 (human); compound 0.1 µM): 115%
residual activity (MAP3K1 (human); compound 10.0 µM): 102%
residual activity (IGF1R (human); compound 0.1 µM): 97%
residual activity (IGF1R (human); compound 1.0 µM): 102%
residual activity (IGF1R (human); compound 10.0 µM): 99%
residual activity (ROCK2 (rat); compound 0.1 µM): 99%
residual activity (ROCK2 (rat); compound 10.0 µM): 51%
residual activity (MAP3K7 TAB1 (human); compound 0.1 µM): 94%
residual activity (MAP3K7 TAB1 (human); compound 1.0 µM): 100%
residual activity (MAP3K7 TAB1 (human); compound 10.0 µM): 55%
residual activity (YES1 (human); compound 0.1 µM): 107%
residual activity (YES1 (human); compound 1.0 µM): 94%
residual activity (YES1 (human); compound 10.0 µM): 76%
residual activity (EPHB3 (human); compound 0.1 µM): 105%
residual activity (EPHB3 (human); compound 1.0 µM): 124%
residual activity (EPHB3 (human); compound 10.0 µM): 94%
residual activity (HIPK2 (human); compound 0.1 µM): 89%
residual activity (HIPK2 (human); compound 1.0 µM): 125%
residual activity (HIPK2 (human); compound 10.0 µM): 87%
residual activity (LCK (mouse); compound 0.1 µM): 84%
residual activity (LCK (mouse); compound 1.0 µM): 30%
residual activity (LCK (mouse); compound 10.0 µM): 9%
residual activity (CSK (human); compound 0.1 µM): 113%
residual activity (CSK (human); compound 1.0 µM): 116%
residual activity (CSK (human); compound 10.0 µM): 90%
residual activity (EPHB1 (human); compound 0.1 µM): 96%
residual activity (EPHB1 (human); compound 1.0 µM): 111%
residual activity (EPHB1 (human); compound 10.0 µM): 99%
residual activity (PAK6 (human); compound 0.1 µM): 99%
residual activity (PAK6 (human); compound 1.0 µM): 99%
residual activity (PAK6 (human); compound 10.0 µM): 81%
residual activity (SYK (human); compound 0.1 µM): 90%
residual activity (SYK (human); compound 1.0 µM): 104%
residual activity (SYK (human); compound 10.0 µM): 92%
residual activity (RPS6KA5 KD1 KD2 (human); compound 0.1 µM): 97%
residual activity (RPS6KA5 KD1 KD2 (human); compound 1.0 µM): 109%
residual activity (RPS6KA5 KD1 KD2 (human); compound 10.0 µM): 79%
residual activity (MAPK13 (human); compound 0.1 µM): 89%
residual activity (MAPK13 (human); compound 1.0 µM): 93%
residual activity (MAPK13 (human); compound 10.0 µM): 50%
residual activity (PAK7 (human); compound 0.1 µM): 97%
residual activity (PAK7 (human); compound 1.0 µM): 90%
residual activity (PAK7 (human); compound 10.0 µM): 71%
residual activity ([1]; compound 0.1 µM): 97%
residual activity ([1]; compound 1.0 µM): 57%
residual activity ([1]; compound 10.0 µM): 3%
residual activity (HIPK3 (human); compound 0.1 µM): 95%
residual activity (HIPK3 (human); compound 1.0 µM): 92%
residual activity (HIPK3 (human); compound 10.0 µM): 101%
residual activity (DAPK1 (human); compound 0.1 µM): 102%
residual activity (DAPK1 (human); compound 1.0 µM): 93%
residual activity (DAPK1 (human); compound 10.0 µM): 40%
residual activity (CLK2 (human); compound 0.1 µM): 78%
residual activity (CLK2 (human); compound 10.0 µM): 51%
residual activity (PKN2 (human); compound 0.1 µM): 96%
residual activity (PKN2 (human); compound 1.0 µM): 66%
residual activity (PKN2 (human); compound 10.0 µM): 19%
residual activity (MAP3K5 (human); compound 0.1 µM): 98%
residual activity (MAP3K5 (human); compound 1.0 µM): 84%
residual activity (MAP3K5 (human); compound 10.0 µM): 21%
residual activity (EPHA4 (human); compound 0.1 µM): 90%
residual activity (EPHA4 (human); compound 1.0 µM): 78%
residual activity (EPHA4 (human); compound 10.0 µM): 48%
residual activity (MAP3K9 (human); compound 1.0 µM): 69%
residual activity (MAP3K9 (human); compound 10.0 µM): 103%
residual activity (PLK1 (human); compound 0.1 µM): 101%
residual activity (PLK1 (human); compound 1.0 µM): 117%
residual activity (PLK1 (human); compound 10.0 µM): 111%
residual activity (MAPK1 (human); compound 0.1 µM): 36%
residual activity (MAPK1 (human); compound 1.0 µM): 29%
residual activity (MAPK1 (human); compound 10.0 µM): 6%
residual activity (MAPK11 (human); compound 0.1 µM): 99%
residual activity (MAPK11 (human); compound 1.0 µM): 96%
residual activity (MAPK11 (human); compound 10.0 µM): 62%
Structure (SMILES): NC(=O)c1cc(-c2ccnc(NC3CCCCC3)c2)nc(N2CCNCC2)c1

— the kinase profiling compilation of Christmann-Franck et al. (2016)
